Assay results from the NIST ThermoML archive (doi:10.1016/j.jct.2017.02.022).

Tests used:
[1] = refractive index (Na D-line) (dimensionless); xn = mol fraction of the nth substance listed; settings: 101.3 kPa, Liquid, Standard Abbe refractometry
[2] = xn = mol fraction of the nth substance listed; settings: 101.3 kPa, Liquid; for speed of sound: Frequency=3 MHz, Sing-around technique in a fixed-path interferometer; for mass density: Vibrating tube method

COS(=O)(=O)[O-].Cn1cc[n+](C)c1 [1,3-dimethylimidazolium methylsulfate] + CCCCCO
Settings | mass density, [2] [kg/m3] | refractive index, [1] | speed of sound, [2] [m/s]
298 K, x1 = 0.1 | 884 | 1.417 | 1311
298 K, x1 = 0.35 | 1041 | 1.439 | 1448
298 K, x1 = 0.54 | 1140 | 1.454 | 1552
298 K, x1 = 0.661 | 1195 | 1.463 | 1618
298 K, x1 = 0.79 | 1250 | 1.471 | 1672
298 K, x1 = 0.931 | 1304 | 1.479 | 1751
298 K, x1 = 1 | 1329 | 1.483 | 1811
303 K, x1 = 0.1 | 879 | 1.416 | 1295
303 K, x1 = 0.35 | 1035 | 1.438 | 1432
303 K, x1 = 0.54 | 1134 | 1.452 | 1536
303 K, x1 = 0.661 | 1189 | 1.461 | 1603
303 K, x1 = 0.79 | 1243 | 1.469 | 1659
303 K, x1 = 0.931 | 1298 | 1.477 | 1738
303 K, x1 = 1 | 1322 | 1.481 | 1799
308 K, x1 = 0.1 | 875 | 1.414 | 1278
308 K, x1 = 0.35 | 1031 | 1.436 | 1417
308 K, x1 = 0.54 | 1129 | 1.451 | 1521
308 K, x1 = 0.661 | 1185 | 1.459 | 1588
308 K, x1 = 0.79 | 1239 | 1.467 | 1645
308 K, x1 = 0.931 | 1294 | 1.476 | 1725
308 K, x1 = 1 | 1319 | 1.48 | 1787
313 K, x1 = 0.1 | 871 | 1.412 | 1261
313 K, x1 = 0.35 | 1026 | 1.433 | 1401
313 K, x1 = 0.54 | 1125 | 1.448 | 1506
313 K, x1 = 0.661 | 1181 | 1.456 | 1574
313 K, x1 = 0.79 | 1235 | 1.465 | 1631
313 K, x1 = 0.931 | 1290 | 1.474 | 1713
313 K, x1 = 1 | 1315 | 1.479 | 1775

COS(=O)(=O)[O-].Cn1cc[n+](C)c1 [1,3-dimethylimidazolium methylsulfate] + CCCCO
Settings | mass density, [2] [kg/m3] | refractive index, [1] | speed of sound, [2] [m/s]
298 K, x1 = 0.063 | 861 | 1.405 | 1263
298 K, x1 = 0.221 | 982 | 1.421 | 1357
298 K, x1 = 0.432 | 1108 | 1.443 | 1500
298 K, x1 = 0.64 | 1205 | 1.46 | 1617
298 K, x1 = 0.781 | 1258 | 1.47 | 1688
298 K, x1 = 0.927 | 1307 | 1.479 | 1761
298 K, x1 = 1 | 1329 | 1.483 | 1811
303 K, x1 = 0.063 | 857 | 1.401 | 1246
303 K, x1 = 0.221 | 977 | 1.418 | 1341
303 K, x1 = 0.432 | 1102 | 1.439 | 1485
303 K, x1 = 0.64 | 1198 | 1.457 | 1602
303 K, x1 = 0.781 | 1252 | 1.468 | 1675
303 K, x1 = 0.927 | 1300 | 1.477 | 1748
303 K, x1 = 1 | 1322 | 1.481 | 1799
308 K, x1 = 0.063 | 852 | 1.398 | 1229
308 K, x1 = 0.221 | 972 | 1.414 | 1325
308 K, x1 = 0.432 | 1097 | 1.435 | 1469
308 K, x1 = 0.64 | 1193 | 1.454 | 1587
308 K, x1 = 0.781 | 1248 | 1.465 | 1661
308 K, x1 = 0.927 | 1297 | 1.475 | 1735
308 K, x1 = 1 | 1319 | 1.48 | 1787
313 K, x1 = 0.063 | 848 | 1.395 | 1213
313 K, x1 = 0.221 | 967 | 1.41 | 1309
313 K, x1 = 0.432 | 1092 | 1.431 | 1454
313 K, x1 = 0.64 | 1189 | 1.45 | 1572
313 K, x1 = 0.781 | 1243 | 1.461 | 1647
313 K, x1 = 0.927 | 1293 | 1.472 | 1722
313 K, x1 = 1 | 1315 | 1.479 | 1775

COS(=O)(=O)[O-].Cn1cc[n+](C)c1 [1,3-dimethylimidazolium methylsulfate] + CCCO
Settings | mass density, [2] [kg/m3] | refractive index, [1] | speed of sound, [2] [m/s]
298 K, x1 = 0.039 | 843 | 1.389 | 1225
298 K, x1 = 0.208 | 995 | 1.413 | 1348
298 K, x1 = 0.382 | 1107 | 1.434 | 1481
298 K, x1 = 0.561 | 1193 | 1.452 | 1605
298 K, x1 = 0.702 | 1246 | 1.464 | 1684
298 K, x1 = 0.912 | 1307 | 1.477 | 1773
298 K, x1 = 1 | 1329 | 1.483 | 1811
303 K, x1 = 0.039 | 839 | 1.387 | 1208
303 K, x1 = 0.208 | 989 | 1.41 | 1332
303 K, x1 = 0.382 | 1100 | 1.432 | 1465
303 K, x1 = 0.561 | 1186 | 1.45 | 1590
303 K, x1 = 0.702 | 1239 | 1.461 | 1670
303 K, x1 = 0.912 | 1301 | 1.476 | 1760
303 K, x1 = 1 | 1322 | 1.481 | 1799
308 K, x1 = 0.039 | 834 | 1.385 | 1191
308 K, x1 = 0.208 | 984 | 1.408 | 1316
308 K, x1 = 0.382 | 1095 | 1.429 | 1450
308 K, x1 = 0.561 | 1181 | 1.447 | 1575
308 K, x1 = 0.702 | 1234 | 1.459 | 1656
308 K, x1 = 0.912 | 1297 | 1.474 | 1747
308 K, x1 = 1 | 1319 | 1.48 | 1787
313 K, x1 = 0.039 | 830 | 1.382 | 1175
313 K, x1 = 0.208 | 979 | 1.404 | 1300
313 K, x1 = 0.382 | 1090 | 1.426 | 1434
313 K, x1 = 0.561 | 1176 | 1.444 | 1561
313 K, x1 = 0.702 | 1229 | 1.456 | 1642
313 K, x1 = 0.912 | 1293 | 1.472 | 1734
313 K, x1 = 1 | 1315 | 1.479 | 1775

CCn1cc[n+](C)c1.COS(=O)(=O)[O-] [1-ethyl-3-methylimidazolium methylsulfate] + CCCCCO
Settings | mass density, [2] [kg/m3] | refractive index, [1] | speed of sound, [2] [m/s]
298 K, x1 = 0.05 | 849 | 1.413 | 1291
298 K, x1 = 0.284 | 999 | 1.435 | 1425
298 K, x1 = 0.459 | 1089 | 1.448 | 1527
298 K, x1 = 0.613 | 1157 | 1.458 | 1603
298 K, x1 = 0.768 | 1216 | 1.468 | 1662
298 K, x1 = 0.922 | 1268 | 1.476 | 1721
298 K, x1 = 1 | 1292 | 1.48 | 1762
303 K, x1 = 0.05 | 845 | 1.412 | 1274
303 K, x1 = 0.284 | 994 | 1.434 | 1409
303 K, x1 = 0.459 | 1085 | 1.447 | 1511
303 K, x1 = 0.613 | 1153 | 1.457 | 1588
303 K, x1 = 0.768 | 1212 | 1.466 | 1648
303 K, x1 = 0.922 | 1265 | 1.475 | 1708
303 K, x1 = 1 | 1289 | 1.479 | 1750
308 K, x1 = 0.05 | 841 | 1.411 | 1258
308 K, x1 = 0.284 | 990 | 1.432 | 1393
308 K, x1 = 0.459 | 1081 | 1.445 | 1496
308 K, x1 = 0.613 | 1149 | 1.455 | 1573
308 K, x1 = 0.768 | 1208 | 1.465 | 1634
308 K, x1 = 0.922 | 1261 | 1.473 | 1695
308 K, x1 = 1 | 1285 | 1.478 | 1739
313 K, x1 = 0.05 | 837 | 1.409 | 1241
313 K, x1 = 0.284 | 986 | 1.43 | 1377
313 K, x1 = 0.459 | 1077 | 1.443 | 1480
313 K, x1 = 0.613 | 1145 | 1.453 | 1559
313 K, x1 = 0.768 | 1205 | 1.463 | 1620
313 K, x1 = 0.922 | 1258 | 1.472 | 1682
313 K, x1 = 1 | 1282 | 1.476 | 1727

CCn1cc[n+](C)c1.COS(=O)(=O)[O-] [1-ethyl-3-methylimidazolium methylsulfate] + CCCCO
Settings | mass density, [2] [kg/m3] | refractive index, [1] | speed of sound, [2] [m/s]
298 K, x1 = 0.041 | 843 | 1.403 | 1260
298 K, x1 = 0.219 | 976 | 1.424 | 1372
298 K, x1 = 0.417 | 1087 | 1.442 | 1504
298 K, x1 = 0.571 | 1156 | 1.454 | 1593
298 K, x1 = 0.731 | 1214 | 1.464 | 1662
298 K, x1 = 0.909 | 1268 | 1.475 | 1729
298 K, x1 = 1 | 1292 | 1.48 | 1762
303 K, x1 = 0.041 | 839 | 1.401 | 1243
303 K, x1 = 0.219 | 972 | 1.422 | 1356
303 K, x1 = 0.417 | 1083 | 1.44 | 1488
303 K, x1 = 0.571 | 1152 | 1.452 | 1578
303 K, x1 = 0.731 | 1210 | 1.462 | 1648
303 K, x1 = 0.909 | 1264 | 1.473 | 1716
303 K, x1 = 1 | 1289 | 1.479 | 1750
308 K, x1 = 0.041 | 835 | 1.398 | 1226
308 K, x1 = 0.219 | 967 | 1.419 | 1340
308 K, x1 = 0.417 | 1078 | 1.437 | 1473
308 K, x1 = 0.571 | 1147 | 1.449 | 1563
308 K, x1 = 0.731 | 1206 | 1.461 | 1634
308 K, x1 = 0.909 | 1261 | 1.472 | 1702
308 K, x1 = 1 | 1285 | 1.478 | 1739
313 K, x1 = 0.041 | 830 | 1.395 | 1209
313 K, x1 = 0.219 | 963 | 1.416 | 1324
313 K, x1 = 0.417 | 1074 | 1.435 | 1457
313 K, x1 = 0.571 | 1143 | 1.447 | 1548
313 K, x1 = 0.731 | 1202 | 1.459 | 1620
313 K, x1 = 0.909 | 1257 | 1.47 | 1689
313 K, x1 = 1 | 1282 | 1.476 | 1727
